Reference: patent US12310963B2, “Pyrazole derivatives and use thereof” (Tarapeutics Science Inc., priority 2019, dated 2025)

What was measured:
[1] = system: human chronic eosinophilic leukemia cells EOL-1 (expressing PDGFRα); assay: Mouse tumor model of human chronic eosinophilic leukemia cells EOL-1; type: in vivo
Description: • 1) Bal b/c female mice, 4-6 weeks old, were purchased from Shanghai SLAC Laboratory Animal Co., Ltd., and were raised in an SPF laboratory; the drinking water and the bedding were both sterilized by autoclaving; and all the operations involving the mice were performed under aseptic conditions; • 2) On Day 0, 1×10^7 human chronic eosinophilic leukemia cells EOL-1 (expressing PDGFRα) (purchased from ATCC) were injected subcutaneously into the left flank of each of the mice; • 3) On Day 15, the mice were randomly divided into four groups with five mice per group, and were administered respectively for 14 days. […] The tumor volume was calculated as length×width×width/2 mm^3.

[2] = system: BaF3-P210 (stably expressing ABL kinase; BCR-ABL P210); assay: Growth of BaF3-P210 cells, Cell Titer-Glo, 72 h; type: cell-based, mouse
From the text: (§1) In this example, mouse primary B cell BaF3 (purchased from ATCC, U.S.A.) was used. In addition, in this example, mouse BaF3-tel-PDGFRα (stably expressing PDGFRα kinase), mouse BaF3-tel-PDGFRβ (stably expressing PDGFRβ kinase), BaF3-P210 (stably expressing ABL kinase), BaF3-P210-T315I (stably expressing ABL-T315I kinase), BaF3-FL-BRAF-V600E (stably expressing BRAF-V600E kinase), BaF3-TEL-cKIT (stably expressing cKIT kinase), BaF3-TEL-VEGFR2 (stably expressing VEGFR2 kinase), BaF3-TEL-FGFR2 (stably expressing FGFR2 kinase) were also used. The above-mentioned cell trains were all constructed in our laboratory by the method as follows. The sequences of human BCR-ABL (P210 or P210/T315I mutated), full-length BRAF-V600E, cKIT, VEGFR2, FGFR2, PDGFRα, PDGFRβ kinase region were amplified respectively via PCR, and inserted respectively into a MSCV-Puro vector (purchased from Clontech) having a N-terminal TEL fragment and/or NPM fragment and/or TPR fragment, and stably transferred into mouse BaF3 cells by the retroviral method, and the growth factor IL-3 was removed. Eventually, cell lines which are transferred into proteins depending on PDGFRα, PDGFRβ were obtained.
(§2) In this example, solutions of the test compound at different concentrations (0.000508 μM, 0.00152 μM, 0.00457 μM, 0.0137 μM, 0.0411 μM, 0.123 μM, 0.370 μM, 1.11 μM, 3.33 μM, 10 μM) were added to the above cells. […]

[3] = system: BaF3-P210-T315I (stably expressing ABL-T315I kinase); assay: Growth of BaF3-P210-T315I cells, Cell Titer-Glo, 72 h; type: cell-based, mouse
From the text: as §1, §2

[4] = system: BaF3-TEL-cKIT (stably expressing cKIT kinase); assay: Growth of BaF3-TEL-cKIT cells, Cell Titer-Glo, 72 h; type: cell-based, mouse
From the text: as §1, §2

GI50 ([2]; BaF3-P210 cells, 72 hours): > 10 µM | GI50 ([3]; BaF3-P210-T315I cells, 72 hours): 5.16 µM | GI50 ([4]; BaF3-TEL-cKIT cells, 72 hours): 5.34 µM
SMILES: Cc1ccc(NC(=O)c2cccc(C(F)(F)F)n2)cc1-n1cc(-c2cncc(N3CCN(C)CC3)c2)cn1 [Compound 1, N-(4-methyl-3-(4-(5-(4-methylpiperazin-1-yl)pyridin-3-yl)-1H-pyrazol-1-yl)phenyl)-6-(trifluoromethyl)picolinamide]
tumor growth inhibitory rate (TGI) ([1]; 5 mg/kg, 14 days after administration, by tumor weight vs control group, FIG. 1c): 96% | effect on tumor size (in words) ([1]; 5 mg/kg, FIG. 1b): excellent effect in inhibiting the tumor | effect on the body weight of the mouse (in words) ([1]; EOL-1 mouse model, 14 days administration, FIG. 1a): little effect on the body weight | inhibitory effect against ABL (in words) ([2]; summary of Table 2): no inhibitory effect, or a relatively weak inhibitory effect | inhibitory effect against ABL-T315I (in words) ([3]; summary of Table 2): no inhibitory effect, or a relatively weak inhibitory effect | inhibitory effect against cKIT (in words) ([4]; summary of Table 2): no inhibitory effect, or a relatively weak inhibitory effect
